# Laboratory results from ChEMBL document CHEMBL1201862, “PubChem BioAssay data set” (2004).
#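 Protocol summary: plate cells (96-well), add compound at 5 concentrations, incubate 48 h, interpolate endpoints linearly. At the GI50, growth is halved.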 Calls of active or inactive are those of the source. No stated cut-off is given here; in the data, active = GI50 up to about 1.1 µM and inactive = higher.
# Columns and labels:
# Assay in all cases: inhibition of tumour cell growth, NCI panel, 48 h
# 786-0 = tested on: 786-0
# A498 = tested on: A498
# A549 = tested on: A549
# ACHN = tested on: ACHN
# BT-549 = tested on: BT-549
# CAKI-1 = tested on: CAKI-1
# CCRF-CEM = tested on: CCRF-CEM
# COLO 205 = tested on: COLO 205
# DU-145 = tested on: DU-145
# EKVX = tested on: EKVX
# HCC 2998 = tested on: HCC 2998
# HCT-116 = tested on: HCT-116
# HCT-15 = tested on: HCT-15
# HL-60 = tested on: HL-60
# HOP-92 = tested on: HOP-92
# IGROV-1 = tested on: IGROV-1
# K562 = tested on: K562
# KM12 = tested on: KM12
# LOX IMVI = tested on: LOX IMVI
# M14 = tested on: M14
# MCF7 = tested on: MCF7
# MDA-MB-231 = tested on: MDA-MB-231
# MDA-MB-435 = tested on: MDA-MB-435
# MDA-N = tested on: MDA-N
# MOLT-4 = tested on: MOLT-4
# Malme-3M = tested on: Malme-3M
# NCI-H226 = tested on: NCI-H226
# NCI-H23 = tested on: NCI-H23
# NCI-H460 = tested on: NCI-H460
# NCI-H522 = tested on: NCI-H522
# NCI/ADR-RES = tested on: NCI/ADR-RES
# OVCAR-3 = tested on: OVCAR-3
# OVCAR-4 = tested on: OVCAR-4
# OVCAR-5 = tested on: OVCAR-5
# OVCAR-8 = tested on: OVCAR-8
# PC-3 = tested on: PC-3
# RPMI-8226 = tested on: RPMI-8226
# RXF 393 = tested on: RXF 393
# SF-295 = tested on: SF-295
# SF-539 = tested on: SF-539
# SK-MEL-28 = tested on: SK-MEL-28
# SK-MEL-2 = tested on: SK-MEL-2
# SK-MEL-5 = tested on: SK-MEL-5
# SK-OV-3 = tested on: SK-OV-3
# SN12C = tested on: SN12C
# SNB-19 = tested on: SNB-19
# SNB-75 = tested on: SNB-75
# SR = tested on: SR
# SW-620 = tested on: SW-620
# TK-10 = tested on: TK-10
# U-251 = tested on: U-251
# UACC-257 = tested on: UACC-257
# UACC-62 = tested on: UACC-62
# UO-31 = tested on: UO-31
# HOP-62 = tested on: HOP-62
# HT-29 = tested on: HT-29
# Hs-578T = tested on: Hs-578T
# SF-268 = tested on: SF-268
# T47D = tested on: T47D
smiles,measurement,setting,value
COC(=O)CC1(CNC(=O)OCc2ccccc2)OCCO1,GI50,786-0,> 100 µM (inactive)
same,GI50,A498,> 100 µM (inactive)
same,GI50,A549,> 100 µM (inactive)
same,GI50,ACHN,> 100 µM (inactive)
same,GI50,BT-549,> 100 µM (inactive)
same,GI50,CAKI-1,> 100 µM (inactive)
same,GI50,CCRF-CEM,> 100 µM (inactive)
same,GI50,COLO 205,> 100 µM (inactive)
same,GI50,DU-145,> 100 µM (inactive)
same,GI50,EKVX,> 100 µM (inactive)
same,GI50,HCC 2998,> 100 µM (inactive)
same,GI50,HCT-116,> 100 µM (inactive)
same,GI50,HCT-15,> 100 µM
same,GI50,HL-60,> 100 µM (inactive)
same,GI50,HOP-92,> 100 µM (inactive)
same,GI50,IGROV-1,> 100 µM (inactive)
same,GI50,K562,> 100 µM (inactive)
same,GI50,KM12,> 100 µM (inactive)
same,GI50,LOX IMVI,> 100 µM (inactive)
same,GI50,M14,> 100 µM (inactive)
same,GI50,MCF7,> 100 µM (inactive)
same,GI50,MDA-MB-231,> 100 µM (inactive)
same,GI50,MDA-MB-435,> 100 µM (inactive)
same,GI50,MDA-N,> 100 µM (inactive)
same,GI50,MOLT-4,> 100 µM (inactive)
same,GI50,Malme-3M,> 100 µM (inactive)
same,GI50,NCI-H226,> 100 µM (inactive)
same,GI50,NCI-H23,> 100 µM (inactive)
same,GI50,NCI-H460,> 100 µM (inactive)
same,GI50,NCI-H522,> 100 µM (inactive)
same,GI50,NCI/ADR-RES,> 100 µM (inactive)
same,GI50,OVCAR-3,> 100 µM (inactive)
same,GI50,OVCAR-4,> 100 µM (inactive)
same,GI50,OVCAR-5,> 100 µM (inactive)
same,GI50,OVCAR-8,> 100 µM (inactive)
same,GI50,PC-3,> 100 µM (inactive)
same,GI50,RPMI-8226,> 100 µM (inactive)
same,GI50,RXF 393,> 100 µM (inactive)
same,GI50,SF-295,> 100 µM (inactive)
same,GI50,SF-539,> 100 µM (inactive)
same,GI50,SK-MEL-28,> 100 µM (inactive)
same,GI50,SK-MEL-2,> 100 µM (inactive)
same,GI50,SK-MEL-5,> 100 µM (inactive)
same,GI50,SK-OV-3,> 100 µM (inactive)
same,GI50,SN12C,> 100 µM (inactive)
same,GI50,SNB-19,> 100 µM (inactive)
same,GI50,SNB-75,> 100 µM (inactive)
same,GI50,SR,> 100 µM (inactive)
same,GI50,SW-620,> 100 µM (inactive)
same,GI50,TK-10,> 100 µM (inactive)
same,GI50,U-251,> 100 µM (inactive)
same,GI50,UACC-257,> 100 µM (inactive)
same,GI50,UACC-62,> 100 µM (inactive)
same,GI50,UO-31,> 100 µM (inactive)
COC(=O)[C@H]1CO[C@H]2C/C(C)=C/CC/C(C)=C/CC[C@@]3(C)O[C@@H]3C[C@H]21,GI50,786-0,16.3 µM (inactive)
same,GI50,A498,22.9 µM (inactive)
same,GI50,A549,16.3 µM (inactive)
same,GI50,ACHN,17.5 µM (inactive)
same,GI50,BT-549,7.8 µM (inactive)
same,GI50,CAKI-1,36.1 µM (inactive)
same,GI50,CCRF-CEM,10 µM (inactive)
same,GI50,COLO 205,10.8 µM (inactive)
same,GI50,DU-145,23.7 µM (inactive)
same,GI50,EKVX,19.5 µM (inactive)
same,GI50,HCC 2998,9.38 µM (inactive)
same,GI50,HCT-116,9.91 µM (inactive)
same,GI50,HCT-15,9.12 µM
same,GI50,HL-60,10.7 µM (inactive)
same,GI50,HOP-62,15.8 µM (inactive)
same,GI50,HOP-92,17.5 µM (inactive)
same,GI50,HT-29,17.9 µM (inactive)
same,GI50,Hs-578T,14 µM (inactive)
same,GI50,IGROV-1,16 µM (inactive)
same,GI50,K562,7.69 µM (inactive)
same,GI50,KM12,9.57 µM (inactive)
same,GI50,M14,16.3 µM (inactive)
same,GI50,MCF7,16.9 µM (inactive)
same,GI50,MDA-MB-231,10.8 µM (inactive)
same,GI50,MDA-MB-435,11.5 µM (inactive)
same,GI50,MOLT-4,10.4 µM (inactive)
same,GI50,NCI-H226,12 µM (inactive)
same,GI50,NCI-H23,17.5 µM (inactive)
same,GI50,NCI-H460,9.73 µM (inactive)
same,GI50,NCI-H522,8.79 µM (inactive)
same,GI50,NCI/ADR-RES,10.7 µM (inactive)
same,GI50,OVCAR-3,10.1 µM (inactive)
same,GI50,OVCAR-4,9.48 µM (inactive)
same,GI50,OVCAR-5,> 50 µM (inactive)
same,GI50,OVCAR-8,14.7 µM (inactive)
same,GI50,PC-3,15.3 µM (inactive)
same,GI50,RPMI-8226,14.1 µM (inactive)
same,GI50,RXF 393,12.9 µM (inactive)
same,GI50,SF-268,19.6 µM (inactive)
same,GI50,SF-295,17.9 µM (inactive)
same,GI50,SF-539,15.6 µM (inactive)
same,GI50,SK-MEL-28,13.4 µM (inactive)
same,GI50,SK-MEL-2,18 µM (inactive)
same,GI50,SK-MEL-5,8.2 µM (inactive)
same,GI50,SK-OV-3,29.9 µM (inactive)
same,GI50,SN12C,10.8 µM (inactive)
same,GI50,SNB-19,> 50 µM (inactive)
same,GI50,SNB-75,14.4 µM (inactive)
same,GI50,SR,10.6 µM (inactive)
same,GI50,SW-620,10.4 µM (inactive)
same,GI50,T47D,20.5 µM (inactive)
same,GI50,TK-10,20 µM (inactive)
same,GI50,U-251,18.6 µM (inactive)
same,GI50,UACC-257,18.4 µM (inactive)
same,GI50,UACC-62,8.87 µM (inactive)
same,GI50,UO-31,13.4 µM (inactive)
